Assay results reported in patent US20230234943A1, “TREX1 INHIBITORS AND USES THEREOF” (Tempest Therapeutics, Inc., priority 2020, published 2023).

Each compound was assayed against T1, Human TREX1 enzyme (amino acids 1-242) (Homo sapiens, UniProt Q9NSU2) (assay: Human TREX1 enzymatic assay with dsDNA native oligonucleotide (Picogreen fluorescence)). Conditions: 2 mM dithiothreitol in assay buffer; 50 nM dsDNA oligonucleotide; 30 min preincubation at 25° C.; read-out: TREX1/Human + DTT IC50 AVG.
T1 construct: Human TREX1 enzyme (amino acids 1-242)
T1 sequence (Q9NSU2 1-242): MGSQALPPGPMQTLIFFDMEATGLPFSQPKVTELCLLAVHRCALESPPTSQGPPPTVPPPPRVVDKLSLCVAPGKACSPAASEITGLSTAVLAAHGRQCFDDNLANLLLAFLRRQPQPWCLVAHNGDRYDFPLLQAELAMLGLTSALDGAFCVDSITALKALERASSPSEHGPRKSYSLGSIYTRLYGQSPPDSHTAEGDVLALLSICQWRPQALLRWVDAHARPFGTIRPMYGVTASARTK
Format: biochemical
How it was run: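 TREX1 (0.8–0.16 nM final) preincubated with compound (300 μM–13 nM or 30 μM–1.5 nM, 2% DMSO) 30 min at 25 °C in Tris pH 7.7, 5 mM MgCl2, 2 mM DTT. Annealed dsDNA (50 nM) added for 5–15 min at 25 °C; EDTA quench with Picogreen fluorescence readout.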

`COc1cc(-c2nc3cc(N4CCN(C(=O)c5ccccc5-c5ccccc5)CC4)ccc3[nH]2)cc(O)c1O` [Example 105, [1,1′-biphenyl]-2-yl(4-(2-(3,4-dihydroxy-5-methoxyphenyl)-1H-benzo[d]imidazol-5-yl)piperazin-1-yl)methanone] and `COc1cc(-c2nc3cc(N4CCN(C(=O)c5cccc(-c6ccccc6)c5)CC4)ccc3[nH]2)cc(O)c1O` [Example 113, [1,1′-biphenyl]-3-yl(4-(2-(3,4-dihydroxy-5-methoxyphenyl)-1H-benzo[d]imidazol-5-yl)piperazin-1-yl)methanone] cannot be ordered by IC50: > 100 µM for the first, > 100 µM for the second.

`COc1cc(-c2nc3ccc(N4CCN(C(=O)c5ccccc5)CC4)cc3n2C2CCOC2)cc(O)c1O` (centres unmarked) [Example 106, (4-(2-(3,4-dihydroxy-5-methoxyphenyl)-1-(tetrahydrofuran-3-yl)-1H-benzo[d]imidazol-6-yl)piperazin-1-yl)(phenyl)methanone] and `COc1cc(-c2nc3cc(N4CCN(C(=O)c5ccccc5Cl)CC4)ccc3[nH]2)cc(O)c1O` [Example 111, (2-chlorophenyl)(4-(2-(3,4-dihydroxy-5-methoxyphenyl)-1H-benzo[d]imidazol-5-yl)piperazin-1-yl)methanone] fall in the same range of IC50: 1 to 10 µM for the first, 1 to 10 µM for the second.

First: COc1cc(-c2nc3cc(N4CCN(C)C(=O)C4)ccc3[nH]2)cc(O)c1O [Example 108, 4-(2-(3,4-dihydroxy-5-methoxyphenyl)-1H-benzo[d]imidazol-5-yl)-1-methylpiperazin-2-one]
Second: COc1cc(-c2nc3cc(N4CCN(C)C(C)(C)C4)ccc3[nH]2)cc(O)c1O [Example 121, 3-methoxy-5-(5-(3,3,4-trimethylpiperazin-1-yl)-1H-benzo[d]imidazol-2-yl)benzene-1,2-diol]
The IC50 of the first is lower: 1 to 10 µM for the first, > 100 µM for the second. The first is the more potent here.

`COc1cc(-c2nc3cc(C4CCN(C(C)=O)CC4)ccc3[nH]2)cc(O)c1O` [Example 109, 1-(4-(2-(3,4-dihydroxy-5-methoxyphenyl)-1H-benzo[d]imidazol-5-yl)piperidin-1-yl)ethanone] and `COc1cc(-c2nc3cc(N4CC5(CN(C(C)=O)C5)C4)ccc3[nH]2)cc(O)c1O` [Example 132, 1-(6-(2-(3,4-dihydroxy-5-methoxyphenyl)-1H-benzo[d]imidazol-5-yl)-2,6-diazaspiro[3.3]heptan-2-yl)ethan-1-one] fall in the same range of IC50: 10 to 100 µM for the first, 10 to 100 µM for the second.

First: COc1cc(-c2nc3c(N4CCOCC4)nccc3[nH]2)cc(O)c1O [Example 110, 3-methoxy-5-(4-morpholino-1H-imidazo[4,5-c]pyridin-2-yl)benzene-1,2-diol]
Second: COc1cc(-c2nc3cc(N4CCCC4)ccc3[nH]2)cc(O)c1O [Example 137, 3-methoxy-5-(5-(pyrrolidin-1-yl)-1H-benzo[d]imidazol-2-yl)benzene-1,2-diol]
The IC50 of the first is higher: > 100 µM for the first, 1 to 10 µM for the second.

First: COc1cc(-c2nc3cc(N4CCN(C(=O)c5ccc(-c6ccccc6)cc5)CC4)ccc3[nH]2)cc(O)c1O [Example 112, [1,1′-biphenyl]-4-yl(4-(2-(3,4-dihydroxy-5-methoxyphenyl)-1H-benzo[d]imidazol-5-yl)piperazin-1-yl)methanone]
Second: COc1cc(-c2nc3cc(N4CCN(C(=O)c5ccc(C(=O)O)cc5)CC4)ccc3[nH]2)cc(O)c1O [Example 127, 4-(4-(2-(3,4-dihydroxy-5-methoxyphenyl)-1H-benzo[d]imidazol-5-yl)piperazine-1-carbonyl)benzoic acid]
The IC50 of the first is higher: > 100 µM for the first, 10 to 100 µM for the second. The second is the more potent here.

`O=C(O)c1ccc(-c2nc3cc(N4CCC4)ccc3[nH]2)cc1O` [Example 114, 4-(5-(azetidin-1-yl)-1H-benzo[d]imidazol-2-yl)-2-hydroxybenzoic acid] and `O=C(O)c1cc(-c2nc3cc(N4CCC4)ccc3[nH]2)ccc1O` [Example 115, 5-(5-(azetidin-1-yl)-1H-benzo[d]imidazol-2-yl)-2-hydroxybenzoic acid] fall in the same range of IC50: 10 to 100 µM for the first, 10 to 100 µM for the second.

`COc1cc(-c2nc3cc(N4CCN(S(=O)(=O)C(C)C)CC4)ccc3[nH]2)cc(O)c1O` [Example 116, 5-(5-(4-(isopropylsulfonyl)piperazin-1-yl)-1H-benzo[d]imidazol-2-yl)-3-methoxybenzene-1,2-diol] and `COc1cc(-c2nc3cc(N4CC(S(C)(=O)=O)C4)ccc3[nH]2)cc(O)c1O` [Example 139, 3-methoxy-5-(5-(3-(methylsulfonyl)azetidin-1-yl)-1H-benzo[d]imidazol-2-yl)benzene-1,2-diol] fall in the same range of IC50: 1 to 10 µM for the first, 1 to 10 µM for the second.

`CS(=O)(=O)N1CCN(c2ccc3[nH]c(-c4ccc(C(=O)O)c(O)c4)nc3c2)CC1` [Example 117, 2-hydroxy-4-(5-(4-(methylsulfonyl)piperazin-1-yl)-1H-benzo[d]imidazol-2-yl)benzoic acid] and `O=C(O)c1ccc(-c2nc3cc(N4CCN(c5cccnc5)CC4)ccc3[nH]2)cc1O` [Example 119, 2-hydroxy-4-(5-(4-(pyridin-3-yl)piperazin-1-yl)-1H-benzo[d]imidazol-2-yl)benzoic acid] fall in the same range of IC50: 10 to 100 µM for the first, 10 to 100 µM for the second.

`O=C(O)c1ccc(-c2nc3cc(N4CCN(C(=O)c5ccccc5)CC4)ccc3[nH]2)cc1O` [Example 118, 4-(5-(4-benzoylpiperazin-1-yl)-1H-benzo[d]imidazol-2-yl)-2-hydroxybenzoic acid] and `COc1cc(-c2nc3cc(N4CCN(C(=O)c5cccc(Cl)c5)CC4)ccc3[nH]2)cc(O)c1O` [Example 123, (3-chlorophenyl)(4-(2-(3,4-dihydroxy-5-methoxyphenyl)-1H-benzo[d]imidazol-5-yl)piperazin-1-yl)methanone] fall in the same range of IC50: 10 to 100 µM for the first, 10 to 100 µM for the second.

First: O=C(O)c1cc(F)c(-c2nc3ccncc3[nH]2)cc1O [Example 120, 5-fluoro-2-hydroxy-4-(3H-imidazo[4,5-c]pyridin-2-yl)benzoic acid]
Second: O=C(O)c1ccc(-c2nc3cc(N4CCC4)ccc3[nH]2)c(F)c1O [Example 129, 4-(5-(azetidin-1-yl)-1H-benzo[d]imidazol-2-yl)-3-fluoro-2-hydroxybenzoic acid]
The IC50 of the first is higher: 10 to 100 µM for the first, 1 to 10 µM for the second.

Compared with `COc1cc(-c2nc3cc(N4CC5(CN(CC(F)(F)F)C5)C4)ccc3[nH]2)cc(O)c1O` [Example 122, 3-methoxy-5-(5-(6-(2,2,2-trifluoroethyl)-2,6-diazaspiro[3.3]heptan-2-yl)-1H-benzo[d]imidazol-2-yl)benzene-1,2-diol], `COc1cc(-c2nc3cc(N4CC(C#N)C4)ccc3[nH]2)cc(O)c1O` [Example 138, 1-(2-(3,4-dihydroxy-5-methoxyphenyl)-1H-benzo[d]imidazol-5-yl)azetidine-3-carbonitrile] is higher in IC50: 10 to 100 µM for the first, > 100 µM for the second. The first is the more potent here.

Compared with `COc1cccc(C(=O)N2CCN(c3ccc4[nH]c(-c5cc(O)c(O)c(OC)c5)nc4c3)CC2)c1` [Example 124, (4-(2-(3,4-dihydroxy-5-methoxyphenyl)-1H-benzo[d]imidazol-5-yl)piperazin-1-yl)(3-methoxyphenyl)methanone], `COc1cc(-c2nc3cc(N4CCN(C(=O)c5cccc(C(C)(C)C)c5)CC4)ccc3[nH]2)cc(O)c1O` [Example 134, (3-(tert-butyl)phenyl)(4-(2-(3,4-dihydroxy-5-methoxyphenyl)-1H-benzo[d]imidazol-5-yl)piperazin-1-yl)methanone] is higher in IC50: 1 to 10 µM for the first, > 100 µM for the second.

`COc1cc(-c2nc3cc(N4CCN(C(=O)c5cc(C)cc(C)c5)CC4)ccc3[nH]2)cc(O)c1O` [Example 125, (4-(2-(3,4-dihydroxy-5-methoxyphenyl)-1H-benzo[d]imidazol-5-yl)piperazin-1-yl)(3,5-dimethylphenyl)methanone] and `COc1cc(-c2nc3cc(N4CCN(C(=O)c5ccc(C(C)(C)C)cc5)CC4)ccc3[nH]2)cc(O)c1O` [Example 126, (4-(tert-butyl)phenyl)(4-(2-(3,4-dihydroxy-5-methoxyphenyl)-1H-benzo[d]imidazol-5-yl)piperazin-1-yl)methanone] cannot be ordered by IC50: > 100 µM for the first, > 100 µM for the second.

First: COc1cc(-c2nc3cc(N4CCN(C(=O)CCCCN)CC4)ccc3n2COCC[Si](C)(C)C)cc(O)c1O [Example 128, 5-amino-1-(4-(2-(3,4-dihydroxy-5-methoxyphenyl)-1-((2-(trimethylsilyl)ethoxy)methyl)-1H-benzo[d]imidazol-5-yl)piperazin-1-yl)pentan-1-one]
Second: COc1cc(-c2nc3cc(N4CCN(C(=O)c5ccccc5C(C)(C)C)CC4)ccc3[nH]2)cc(O)c1O [Example 133, (2-(tert-butyl)phenyl)(4-(2-(3,4-dihydroxy-5-methoxyphenyl)-1H-benzo[d]imidazol-5-yl)piperazin-1-yl)methanone]
The IC50 of the first is lower: 10 to 100 µM for the first, > 100 µM for the second. The first is the more potent here.

Compared with `COc1cc(-c2nc3ccccc3n2C2COC2)c(C(F)(F)F)c(O)c1O` [Example 130, 6-methoxy-4-(1-(oxetan-3-yl)-1H-benzo[d]imidazol-2-yl)-3-(trifluoromethyl)benzene-1,2-diol], `COc1cc(-c2nc3cc(N4[C@@H]5CC[C@H]4CN(C(=O)c4ccccc4)C5)ccc3[nH]2)cc(O)c1O` [Example 135, ((1R,5S)-8-(2-(3,4-dihydroxy-5-methoxyphenyl)-1H-benzo[d]imidazol-5-yl)-3,8-diazabicyclo[3.2.1]octan-3-yl)(phenyl)methanone] is lower in IC50: 10 to 100 µM for the first, 1 to 10 µM for the second. The second is the more potent here.

Compared with `COc1cc(-c2nc3cc(N4CCN(c5ccncc5)CC4)ccc3[nH]2)cc(O)c1O` [Example 131, 3-methoxy-5-(5-(4-(pyridin-4-yl)piperazin-1-yl)-1H-benzo[d]imidazol-2-yl)benzene-1,2-diol], `COc1cc(-c2nc3cc(N4C[C@H]5CC[C@@H](C4)N5C(=O)c4ccccc4)ccc3[nH]2)cc(O)c1O` [Example 136] is higher in IC50: 10 to 100 µM for the first, > 100 µM for the second. The first is the more potent here.

Compound `O=C(O)c1cc(-c2nc3cc(N4CCOCC4)ccc3[nH]2)ccc1O` [Example 140, 2-hydroxy-5-(5-morpholino-1H-benzo[d]imidazol-2-yl)benzoic acid] has an IC50 of 10 to 100 µM.
